In data set [1] the test system is C57BL/6J mice. The experiment in a line: Learned helplessness test (compound of formula I′). In kind it is in vivo. The procedure:
As explained above, the learned helplessness test in mice is the well-known animal model to determine antidepressant efficacy of compounds. Basically when animals learned to be helpless are given antidepressant drugs, they unlearn helplessness and start exerting control over their environment. Antidepressant activity of compounds was assessed by estimating latency time as a period in which animal is not trying to escape from stress (see Table 3). […]

The subject of data set [2] is C57BL/6J mice. Nature of the data set: Black and white box test (light-dark test). Format: in vivo. The note with it: entries to the light zone; i.p.; percent of control (non-treated animals) taken as 100%. An excerpt:
The black and white test (also named light-dark test) is based on the conflict of natural tendencies of rodents to avoid lighted and open areas and to explore novel environments. Relative time spent in exploring each compartment indicates the anxiety level of the animal: Avoidance of the brightly lit area is considered reflecting “anxiety-like” behaviors. When treated with anxiolytic drugs, rodents spend more time in this area, an effect purportedly due to a decrease in anxiety.
The C57BL/6J mice were treated intraperitoneally with compound of the invention, then anxiolytic efficacy of compounds of formula I was assessed by estimating the number of entries to the light zone (see Table 1).

The subject of data set [3] is C57BL/6J mice. The experiment in a line: Toxicity test, median lethal dose after intraperitoneal injection. Format: in vivo. Here is the method:
Toxicity to mammals was measured after intraperitoneal injections of compounds of formula I to C57BL/6J mice. Median lethal dose (LD50) was calculated as described previously (see table 1).

The subject of data set [4] is C57BL/6J mice. Nature of the data set: Learned helplessness test (compounds of formula I). Format: in vivo. Conditions: percent of control (non-treated animals) taken as 100%; for Latency time, % 1/3 LD50: i.p. dose 1/3 of LD50; for Latency time, % 1/13 LD50: i.p. dose 1/13 of LD50. Here is the method:
The learned helplessness test in mice is the well-known animal model to determine antidepressant efficacy of compounds. Basically when animals learned to be helpless are given antidepressant drugs, they unlearn helplessness and start exerting control over their environment.
The C57BL/6J mice were treated intraperitoneally with compounds of formula I intraperitoneally at dose corresponding to ⅓ or 1/13 of lethal dose, then antidepressant activity of compounds was assessed by estimating latency time as a period in which animal is not trying to escape from stress (see Table 1).

For data set [5], the system named is male white rats. The experiment in a line: Behavioral despair test (forced swimming). Format: in vivo. The note with it: 3 h. Here is the method: This behavior reflects a state of despair which can be reduced by several agents which are therapeutically effective in human depression.
The male white rats (250-280 g) were treated intraperitoneally according to procedure described below. The animals were divided into five groups of ten rats and treated as follows. The rats of first group were used as controls. They were injected intraperitoneally with distilled water 24 h, 3 h, 40 minutes before the experiment. Second group was treated with Compound I′ at a dose 100 mg/kg i.p. 24 h, 3 h, 40 minutes before the experiment. Third group was treated with Amitriptyline at a dose 10 mg/kg i.p. using the same regimen as in groups above.
The antidepressant activity was assessed by estimating immobility time as a period in which animal remains immobile during swimming (see Table 2). Statistical data processing was performed using “BioStat” tool for Windows.

Data set [6] deals with male white rats. The experiment in a line: Modified behavioral despair test (water wheel). Format: in vivo. Conditions: 3 h. The procedure: Nomura et al. (1982) published a modification of the despair swim test in mice involving small water wheel set in a water tank. Mice placed on this apparatus turned the wheel vigorously but when they abandoned attempts to escape from the water, the wheel stopped turning. Antidepressant activity of compounds was assessed by counting the number of rotations of the water wheel (see Table 4).
The male white rats (250-280 g) were treated intraperitoneally according to procedure described below. The animals were divided into five groups of ten rats and treated as follows. The rats of first group were used as controls. They were injected intraperitoneally with distilled water 24 h, 3 h, 40 minutes before the experiment. Second group was treated with Compound Ia at a dose 100 mg/kg i.p. 24 h, 3 h, 40 minutes before the experiment. Third group was treated with Amitriptyline at a dose 10 mg/kg i.p. using the same regimen as in groups above.
The antidepressant activity was assessed by estimating immobility time as a period in which animal remains immobile during swimming (see Table 4). Statistical data processing was performed using “BioStat” tool for Windows.

For data set [7] the following is noted: acute toxicity, known antidepressants for comparison; cited from earlier work.
The mark [8] stands for this setting: 100 mg/kg i.p. 24 h, 40 minutes before the experiment.
[9] abbreviates: 100 mg/kg i.p. three times 24 h, 40 min before experiment.
Setting [10] is: 10 mg/kg i.p. 24 h, 40 minutes before the experiment (Fluoxetin as powder).
Where [11] appears, read: 90 mg/kg i.p. once daily, 2 days course.
[12] abbreviates: 90 mg/kg i.p. once daily, 6 days course.
The mark [13] stands for this setting: 90 mg/kg i.p. once daily, 12 days course.

Each structure is given as a SMILES string. Marks after values point to notes of the source that are not given here.

Regarding `Cc1ccc2c(c1)c1c3n2CCNC3CCC1` (centres unmarked) [pirazidole], the “Latency time” value in data set [1] (10 mg/kg i.p., 2 days course) was determined as 13.6 ± 1.1 s; in data set [1] (10 mg/kg i.p., 6 days course) it was 10.0 ± 1.4 s; in data set [1] (10 mg/kg i.p., 12 days course), 8.3 ± 0.7 s. For the same compound, the Non-escaping animals, % in data set [1] (10 mg/kg i.p., 2 days course) was 39%; in data set [1] (10 mg/kg i.p., 6 days course), 18%; in data set [1] (10 mg/kg i.p., 12 days course), 14* %.
As for `C1CCC2(C1)NN2CCN1NC12CCCC2` [If, meso-1S,2S,1′R,2′R-1-[2-(1,2-diazaspiro[2.4]hept-1-yl)ethyl]-1,2-diazaspiro[2.4]heptane], the “Number of entries, %” value in data set [2] is recorded as 60** %. Further, the LD50 (in general, the dose expected to kill half of the subjects tested) in data set [3] was 1150 mg/kg. Moreover, in data set [4], the “Latency time, % 1/3 LD50” value was determined as 95% and the “Latency time, % 1/13 LD50” value worked out at 94%.
Regarding `[H][N@]1[N@@](CC[N@@]2[N@]([H])C2(C)C)C1(C)C` [I′, meso-1S,2S,1′R,2′R-1-[2-(3,3-dimethyldiaziridin-1-yl)ethyl]-3,3-dimethyldiaziridine], the “Immobility time” value in data set [5] (setting [8]) amounted to 291.55 ± 43.94 s. In data set [5] (setting [9]), the “antidepressant activity (behavioral despair test)” value is recorded as “significant antidepressant activity”. The “time after which antidepressive effect was observed” value in data set [1] (90 mg/kg i.p. once daily, earlier than for comparative drugs) came out at 2 days. In data set [6] (setting [8]), this compound yielded a Rotation number of 156.48 ± 26.79. For the same compound, the “antidepressant activity (modified behavioral despair test)” value in data set [6] (setting [9]) is reported as “significant antidepressant activity”.
Turning to `CC1(C)NN1CCCCN1NC1(C)C` [Ic, meso-1S,2S,1′R,2′R-1-[4-(3,3-dimethyldiaziridin-1-yl)butyl]-3,3-dimethyldiaziridine], in data set [2], the “Number of entries, %” value is given as 62** %. Also, in data set [3], the median lethal dose (LD50) is on record as 1000 mg/kg. Also, in data set [4], the “Latency time, % 1/3 LD50” value is on record as 188** % and the “Latency time, % 1/13 LD50” value was found to be 104%.
Regarding `CNCCC(Oc1ccc(C(F)(F)F)cc1)c1ccccc1` (centres unmarked) [Fluoxetin], the “Immobility time” value is on record as 337.45 ± 36.69 s in data set [5] (setting [10]) and 218.45 ± 38.87 s in data set [5] (20 mg/kg 24 h, 40 minutes before the experiment (Fluoxetin as tablet)). This compound also returned a Rotation number in data set [6] (setting [10]) of 108.34 ± 53.96.
On to `CN(C)CCC=C1c2ccccc2CCc2ccccc21` [Amitriptyline, reference compound], for which the “Immobility time” value in data set [5] (setting [10]) was determined as 145.62 ± 45.39 s. The compound also showed a Rotation number in data set [6] (setting [10]) of 165.93 ± 35.41.
Consider `CN(C)CCCN1c2ccccc2CCc2ccccc21` [melipramine], for which the “Latency time” value in data set [1] (7 mg/kg i.p., 2 days course) was determined as 13.5 ± 1.8 s; in data set [1] (7 mg/kg i.p., 6 days course), 11.8 ± 1.5 s; in data set [1] (7 mg/kg i.p., 12 days course), 9.2 ± 1.1 s. In addition, the Non-escaping animals, % is given as 43% in data set [1] (7 mg/kg i.p., 2 days course); 29% in data set [1] (7 mg/kg i.p., 6 days course); 11* % in data set [1] (7 mg/kg i.p., 12 days course).
Turning to `CN(C)CCCC1(c2ccc(F)cc2)OCc2cc(C#N)ccc21` (centres unmarked) [cypramile], the 50% lethal dose (LD50) in data set [7] is 1.7 mg/kg.
As for `CC1(C)NN1CCN1NC12CCCCC2` [Ie, meso-1S,2S,1′R,2′R-1-[2-(3,3-dimethyldiaziridin-1-yl)ethyl]-1,2-diazaspiro[2.5]octane], the “Number of entries, %” value in data set [2] was 75** %. Besides, the “LD50” value in data set [3] was determined as 1125 mg/kg. Also, in data set [4], the “Latency time, % 1/3 LD50” value is 62** % and the “Latency time, % 1/13 LD50” value is reported as 74** %.
Consider `O=C(CCNNC(=O)c1ccncc1)NCc1ccccc1` [Nyalamidum], for which the LD50 in data set [7] was 820 mg/kg.
Turning to `C1CCC2(CC1)NN2CCN1NC12CCCCC2` [Ia, meso-1S,2S,1′R,2′R-1-[2-(1,2-diazaspiro[2.5]oct-1-yl)ethyl]-1,2-diazaspiro[2.5]octane], in data set [2], the “Number of entries, %” value is recorded as 56** %. Besides, the “LD50” value in data set [3] is listed as 611 mg/kg. Besides, in data set [1] (setting [11]), the “Latency time” value is 13.6 ± 1.1 s and the Non-escaping animals, % was 18** %. Besides, in data set [1] (setting [12]), the “Latency time” value came out at 7.5 ± 0.9 s and the “Non-escaping animals, %” value is listed as 12** %. Further, in data set [1] (setting [13]), the “Latency time” value stood at 6.2 ± 0.5 s and the “Non-escaping animals, %” value is given as 1.4** %. Further, in data set [1] (single dose), the “effect of single doses in learned helplessness test” value is recorded as “not effective”. In data set [4], the “Latency time, % 1/3 LD50” value was 56** % and the “Latency time, % 1/13 LD50” value was 72** %.

Values taken from US20140088063A1, “AGENTS FOR TREATING NEURODEGENERATIVE DISORDERS” (priority 2010, published 2014).
